Entries after “also recorded” stand apart in the source; their conditions may differ.
Assays:
[1] = system: RARs and RXRs; experiment: Binding to RARs and RXRs (summary over all six receptors); conditions: RARα,β,γ and RXRα,β,γ
[2] = system: RARs and RXRs; conditions: Heyman et al., Cell, 68:397 (1992); cited from earlier work
[3] = system: RARs and RXRs; experiment: Binding to and modulating gene expression via RARs and RXRs; conditions: labeled retinoid
[4] = system: RXRs; experiment: Binding to RXRs (summary)

Which “binding to / activity on RARs and RXRs, in words” value (from here on “binding to / activity”) [1] does the source give for `CC1=C(/C=C/C(C)=C\C=C\C(C)=C\C(=O)O)C(C)(C)CCC1` [9-cis RA, (2E,4E,6Z,8E)-3.7-Dimethyl-9-(2,6,6-trimethylcyclohexen-1-yl)nona-2.4.6.8-tetraenoic acid] here?
The value was “active on all six known retinoid receptors”.

What about the “binding to / activity” value ([1]; listed as 9-cis retinoic acid) of the same compound?
Its value is “effectively binds to all six receptors; also recorded: binds to the RARs and RXRs with high affinity in a saturable and specific manner”.

What about the “binding to and modulating gene expression via the RARs and RXRs, in words” value [2] of the same compound?
The value was “capable of binding to and modulating gene expression via the RARs and RXRs”.

Which “binding with, and modulating gene expression from, both RARs and RXRs, in words” value [3] does the source give for `[3H]C(/C=C(C)\C=C\C1=C(C)CCCC1(C)C)=C\C(C)=C\C(=O)O` [monotritium-labeled 9-cis RA, (2E,4E,6Z,8E)-5-[^3 H]-3,7-Dimethyl-9-(2,6,6-trimethylcyclohexen-1-yl)nona-2,4,6,8-tetraenoic acid] here?
Its value is “capable of binding with, and modulating gene expression from, both RARs and RXRs”.

What about the “binding to / activity” value [1] of the same compound?
Its value is “binds to all the known RARs and RXRs with approximately equal nanomolar affinities”.

For `CC1=C(/C=C/C(C)=C/C=C/C(C)=C/C(=O)O)C(C)(C)CCC1` [ATRA, all-trans retinoic acid], which “binding to / activity” value [1] is on record?
The value was “only binds to the RARs”.

And the “binding to / activity” value ([1]; listed as all-trans retinoic acid (ATRA))?
The value was “only active on RARα,β,γ”.

And the “binding to RXRs, in words” value [4]?
The value was “does not bind to RXRs”.

Source: US5508456A, “9-cis tritium-labeled retinoids and intermediates, methods for their synthesis and methods for their use in discovering retinoid X receptor ligands” (Ligand Pharmaceuticals Incorporated, priority 1994, dated 1996)
